Legend:
Format in all cases: cell-based
[1] = test system: Fyn; experiment: Localization of Fyn to Triton X-100 insoluble fractions in COS-1 cells; settings: COS-1, 1% Triton X-100 extraction; untreated: majority detergent resistant
Experimental: (§1) Isolation of Triton X-100 resistant and soluble fractions was carried out as described previously (12). Isolation of detergent resistant microdomains by sucrose gradients were carried out as follows (19): Jurkat cells (5×10^7) were treated with 2-bromopalmitate, activated with OKT3 mAb as described above, and lysed in 1 ml lysis buffer (25 mM MES pH 6.5, 150 mM NaCl, 0.5% Triton X-100, 1 mM Na3VO4) supplemented with protease inhibitors for 30 minutes at 0° C. After homogenizing 10 times with a loose fit Dounce homogenizer, lysates were mixed with 1 ml 85% sucrose in MBS (25 mM MES pH 6.5, 150 mM NaCl), and overlayered with 6 ml 30% sucrose in MBS, then with 4 ml 5% sucrose in MBS. Following centrifugation for 16 hours at 145,000 g in an SW40 rotor, 1 ml fractions were collected and analyzed by PAGE and immunoblotting with anti-Fyn, anti-LAT, or anti-Lck antibodies.
Previous experiments have shown that following rapid membrane binding of newly synthesized Fyn, there is a slower partitioning of Fyn (10-20 minutes) to regions of the plasma membrane that are resistant to Triton X-100 extraction at 4° C. (12). Therefore the effect of 2-bromopalmitate on the localization of Fyn to Triton X-100 insoluble fractions was examined. Transfected COS-1 cells were left untreated or treated with 2-bromopalmitate as described above. […]

[2] = target: T1, Fyn (Homo sapiens, UniProt P06241); experiment: Fyn fatty acylation (IC13/IC16) in transfected Jurkat T cells; settings: 100 μM, 3 hours preincubation
T1 construct: expressed in transfected cells; host or cells: COS-1
Experimental: The syntheses of 13-[^125I]-iodotridecanoic acid (IC13)or 16-[^125I]-iodohexanoic acid (IC16) were carried out as described previously (39). Cell labeling was carried out as described (12,13) with modifications. Briefly, each 60 mm plate of Fyn transfected COS-1 cells was incubated O/N in DMEM containing 2.5% FBS, 0.5% defatted BSA (Sigma) with or without 100 μM 2-bromopalmitate or 50 μM polyunsaturated fatty acid. Prior to labeling, the cells were incubated for 1 hr with 1 ml of DMEM containing 2% dialyzed FBS, then labeled for 4 hours with 25-50 μCi IC13 or IC16 in DMEM containing 2% dialyzed FBS, 0.5% defatted BSA with or without 2-bromopalmitate or polyunsaturated fatty acid. Labeled cells were washed three times with cold STE (100 mM NaCl, 10 mM Tris pH 7.4, 1 mM EDTA) and lysed in 0.6 ml of cold RIPA buffer containing protease inhibitors (10 μg/ml each of benzamidine, AEBSF, TPCK and TLCK, 1.5 μg/ml each of Leupeptin, Pepstatin A and Aprotinin). Lysates were clarified at 100,000×g for 15 min at 4° C. in a Beckman TL-100 ultracentrifuge. […] Gels were dried between cellophane and analyzed by phosphorimaging after 12-36 hours exposure. […]
The Src family kinases Fyn and Lck play critical roles in T cell receptor (TCR) mediated signaling. […] Total protein levels were monitored by immunoprecipitation followed by immunoblotting with anti-Fyn antibody.

[3] = test system: Fyn; experiment: DRM (raft) localization in activated Jurkat cells, sucrose gradient: Fyn; settings: 100 μM 3 hours, OKT3 activated, control 88%
Experimental: as §1
(§2) The ability of 2-bromopalmitate to inhibit localization of palmitoylated proteins to detergent resistant microdomains in activated Jurkat cells was examined next. Cells were either left untreated or treated with 100 μM 2-bromopalmitate for 3 hours, washed, resuspended in serum-free media, and the TCR was activated with OKT3 mAb. Activated cells were extracted with Triton X-100 containing buffer. […] Each fraction was analyzed by immunoblotting with specific antibodies. […]

[4] = test system: LAT; experiment: DRM (raft) localization in activated Jurkat cells, sucrose gradient: LAT; settings: 100 μM 3 hours, OKT3 activated, control 71%
Experimental: as §1, §2

[5] = test system: Jurkat T cells; experiment: Calcium mobilization assay in Jurkat T cells (fluo-3, flow cytometry)
Experimental: Jurkat cells were treated with 2-bromopalmitate as described above. The cells (2×10^5) were collected by centrifugation and resuspended at 2×10^6 cells/ml in RPMI containing in 50 μM fluo-3 with or without 100 μM 2-bromopalmitate for 30 minutes at room temperature. Cells loaded with fluo-3 were then collected by centrigation, washed with Hank's Buffered Saline Solution (5.4 mM KCl, 0.3 mM Na2HPO4, 0.4 mM KH2PO4, 4 mM NaHCO3, 1.3 mM CaCl2, 0.5 mM MgCl2, 0.6 mM MgSO4, 137 mM NaCl, 5.6 mM glucose, 20 mM Hepes pH 7.4) and resuspended in the same buffer at 5×10^5 cells/ml at 37° C. To initiate calcium flux, the cells were activated with OKT3 antibody as described above, and analyzed for free calcium ion by measurement of fluo-3 fluoresence emission by flow cytometry.
Jurkat cells were incubated with or without 2-bromopalmitate, washed and stained with the fluorescent dye fluo-3 (50 μM). Cells were activated with OKT3 antibody and analyzed by flow cytometry. […] No effect of 2-bromopalmitate on cells incubated in the absence of OKT3 was noted.

T1 sequence (P06241 whole entry, species assumed): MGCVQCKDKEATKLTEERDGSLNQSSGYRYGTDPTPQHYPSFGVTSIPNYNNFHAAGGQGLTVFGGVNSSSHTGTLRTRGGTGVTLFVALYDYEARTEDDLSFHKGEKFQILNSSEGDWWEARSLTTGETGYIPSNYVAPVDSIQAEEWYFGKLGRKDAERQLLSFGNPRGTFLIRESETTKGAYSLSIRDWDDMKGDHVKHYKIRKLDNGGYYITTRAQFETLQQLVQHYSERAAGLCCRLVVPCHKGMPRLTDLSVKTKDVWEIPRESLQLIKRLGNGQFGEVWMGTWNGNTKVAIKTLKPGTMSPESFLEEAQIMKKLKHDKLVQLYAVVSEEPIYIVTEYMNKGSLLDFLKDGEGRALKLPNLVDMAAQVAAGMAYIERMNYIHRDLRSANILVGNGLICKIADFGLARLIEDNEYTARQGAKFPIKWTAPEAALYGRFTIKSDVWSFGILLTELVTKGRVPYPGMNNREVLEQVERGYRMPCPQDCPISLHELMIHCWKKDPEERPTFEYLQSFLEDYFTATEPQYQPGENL

CCCCCCCCCCCCCCC(Br)C(=O)O (stereo not shown) [2-bromopalmitate]
Fyn association with detergent resistant vs soluble fraction [1]: mostly soluble
Fyn myristoylation inhibited relative to untreated controls ([2]; IC13): 75%
Fyn palmitoylation inhibited relative to untreated controls ([2]; IC16): 90%
Fyn found in the rafts [3]: 59%
LAT associated with detergent resistant microdomains [4]: 41%
calcium flux in response to T cell receptor activation ([5]; 100 μM, OKT3 activated): shut down almost completely
effect on calcium in cells incubated in the absence of OKT3 ([5]; no OKT3): No effect
